Results on 29 compounds are retold here after patent US8450333B2, “Molecules for regulating cell death” (The Regents of The University of California, priority 2003, dated 2013).

The first test deals with actin cytoskeleton and peripheral ER network. Description: Actin cytoskeleton and peripheral ER network in yeast. The conditions noted are these: added after mfisi-1 treatment. The format is cell-based. The source says:
These structures are routinely examined in yeast mitochondrial morphology mutants as a test for the specificity of the mitochondrial phenotype.
Take `C/C1=C/C(=O)O[C@@H]2C[C@@H](CC[C@H](C)/C=C\C=C\CC1)O[C@@](O)([C@@H]1CSC(=O)N1)C2` [Latrunculin-A]: the “effect on actin cables and patches” value was “complete disruption of actin cables and patches”; the “effect on mitochondrial nets” value was “caused mitochondrial nets to collapse and aggregate”.

Another test deals with mammalian COS cells. Description: Mitochondrial fragmentation induced by staurosporine (STS) in COS cells. The format is cell-based. Conditions: COS cells stimulated with STS; mfisi-1 at 50 μM; n=100. The source says:
As indicated above, we observed that mfisi-1 causes changes in mitochondrial morphology in mammalian cells that are consistent with a block in mitochondrial fission. Thus, we examined the effects of mfisi-1 on mitochondrial fragmentation caused by the intrinsic apoptotic stimulus staurosporine (STS) in mammalian COS cells. […] These observations indicate that mfisi-1 retards apoptosis-stimulated Drp1-dependent mitochondrial fission.
As to `CN[C@@H]1C[C@H]2O[C@@](C)([C@@H]1OC)n1c3ccccc3c3c4c(c5c6ccccc6n2c5c31)C(=O)NC4` [STS, staurosporine, reference compound], the “% collapsed nets” value turned out to be 0%, the “% fragmented” value stood at 86%, the “% loose nets” value is 0% and the “% reticular” value is recorded as 14%.

A further test deals with wild type yeast cells. Briefly: Mitochondrial morphology in yeast (secondary screen, mitochondrial targeted GFP). The format is cell-based, S. cerevisiae. The conditions noted are these: Structure Function Analysis of Compound A1, yeast. The source says:
Secondary screens: Compounds identified in the primary growth assay-based screens outlined above are screened secondarily by examining their effects on mitochondrial morphology. We use the steady state structure of mitochondria as an indicator of the relative rates of mitochondrial fission and fusion in cells. […] Mitochondria are visualized using a mitochondrial targeted GFP that is efficiently targeted to both wild type and respiratory deficient mitochondria (Tieu et al., 2000 The Journal of Cell Biology 151, 353-365.).
All compounds identified in the primary growth assay-based screens outlined above were screened secondarily by examining their effects on mitochondrial morphology in yeast. From previous work, we know that the steady state structure of mitochondria is an indicator of the relative rates of mitochondrial fission and fusion in cells (FIG. 7). Specifically, net-like structures indicate a block in fission, and fragmented mitochondrial structures indicate a block in fusion. […] In this secondary assay, small molecules were judged to be a hit if they produced a mutant phenotype in greater than 5% of the cell population.
To determine what structural features are important for the effects of mfisi-1 on mitochondrial fission, we identified structurally related molecules using a chemoinformatics approach. We utilized web-based ChemNavigator to search available public and commercial compound databases for small molecules that uniquely represented key structural features of mfisi-1. We tested a total of 15 small molecules related to mfisi-1 for their effects on mitochondrial morphology in yeast, each at a concentration of 50 μM (Table 3).
Consider `C=CCSc1nc2ccccc2c(=O)n1Cc1ccccc1` [drawing 17], for which the “% fragmented” value was found to be 69%, the “% nets” value stood at 0% and the “% reticular” value is on record as 31%.
Consider `O=c1c2ccccc2nc2n1CCS2` [drawing 19], for which the “% fragmented” value was determined as 7.3%, the “% nets” value turned out to be 0% and the “% reticular” value was determined as 92.7%.
In the case of `O=c1c2ccccc2nc(S)n1Cc1ccccc1`, the “% fragmented” value was 6%, the “% nets” value turned out to be 5% and the “% reticular” value is 89%.
Taken in the same sequence, the figures for `Cc1ccccc1-n1c(S)nc2ccccc2c1=O` [drawing 8] were 8%, 29% and 63%.
Taken in the same sequence, the figures for `CCSc1nc2ccccc2c(=O)n1-c1cccc(C)c1` [drawing 12] were 51%, 1% and 48%.
`COc1ccccc1-n1c(S)nc2ccccc2c1=O` [drawing 16]: the “% fragmented” value turned out to be 32%, the “% nets” value came to 0% and the “% reticular” value came out at 68%.
Taken in the same sequence, the figures for `CSc1nc2ccccc2c(=O)n1-c1cccc(C)c1` [drawing 14] were 6%, 0% and 94%.
On to `O=C(O)CSc1nc2ccccc2c(=O)n1-c1ccccc1` [drawing 11], for which the “% fragmented” value is listed as 8%, the “% nets” value turned out to be 5% and the “% reticular” value came out at 87%.
Taken in the same sequence, the figures for `C=CCSc1nc2ccccc2c(=O)n1-c1cccc(C)c1` [drawing 13] were 8%, 1% and 91%.
Taken in the same sequence, the figures for `COc1cc(-n2c(SC)nc3ccccc3c2=O)c(Cl)cc1Cl` [drawing 9] were 11%, 7% and 82%.
Taken in the same sequence, the figures for `Cc1cccc(-n2c(S)nc3ccccc3c2=O)c1` [drawing 15] were 0%, 0% and 100%.
As for `C=CCSc1nc2ccccc2c(=O)n1-c1ccccc1OC` [drawing 18], the “% fragmented” value is given as 3.2%, the “% nets” value was determined as 0% and the “% reticular” value turned out to be 96.8%.

Staying with this test, now noted: yeast, each at a concentration of 50 μM.
Turning to `CSc1nc2ccccc2c(=O)n1Cc1ccccc1` [3-Benzyl-2-methylsulfanyl-3H-quinazolin-4-one], the “% net-like structures” value is 5%.
On the same count and under the same terms, the result for `CSc1nc2cc(Cl)ccc2c(=O)n1-c1cc(OC(C)C)c(Cl)cc1Cl` [mfisi-1.3, 7-chloro-3-(2,4-Dichloro-5-isopropoxy-phenyl)-2-methylsulfanyl-3H-quinazolin-4-one] reads 2%.
Still for that read-out and setting: the result for `COc1cc(-n2c(SC)nc3cc(Cl)ccc3c2=O)c(Cl)cc1Cl` [mfisi-1.1, 7-chloro-3-(2,4-Dichloro-5-methoxy-phenyl)-2-methylsulfanyl-3H-quinazolin-4-one] reads 7%; that for `O=c1c2ccccc2nc2n1CCS2` [2,3-Digydor-thiazolo[2,3-b]quinazolin-4-one], 0%; that for `C=CCSc1nc2ccccc2c(=O)n1-c1ccccc1OC` [2-Allylsulfanyl-(2-methoxy-phenyl)-3H-quinazolin-4-one], 0%.
For the compound `COc1ccccc1-n1c(S)nc2ccccc2c1=O` [2-Mercapto-3-(2-methoxy-phenyl)-3H-quinazolin-4-one], the “% net-like structures” value is reported as 0%.
Same read-out and setting: the result for `O=C(O)CSc1nc2ccccc2c(=O)n1-c1ccccc1` [(4-oxo-3-phenyl-3,4-dihydro-quinazolin-2-ylsulfanyl)-acetic acid] reads 5%.
The same measure, in the same setting: the value for `COc1cc(-n2c(SC)nc3ccccc3c2=O)c(Cl)cc1Cl` [mfisi-1.2, 3-(2,4-Dichloro-5-methoxy-phenyl)-2-methylsulfanyl-3H-quinazolin-4-one] was 7%; that for `Cc1cccc(-n2c(S)nc3ccccc3c2=O)c1` [2-Mercapto-3-m-tolyl-3H-quinazolin-4-one] was 0%; that for `C=CCSc1nc2ccccc2c(=O)n1-c1cccc(C)c1` [2-Allylsulfanyl-3-m-tolyl-3H-quinazolin-4-one] was 1%.
Take `COc1cc(-n2c(SC)nc3ccc(Cl)cc3c2=O)c(Cl)cc1Cl` [mfisi-1.4, 6-chloro-3-(2,4-Dichloro-5-methoxy-phenyl)-2-methylsulfanyl-3H-quinazolin-4-one]: the “% net-like structures” value was 2%.
Consider `CCSc1nc2ccccc2c(=O)n1-c1cccc(C)c1` [2-Ethylsulfanyl-3-m-tolyl-3H-quinazolin-4-one], for which the “% net-like structures” value stood at 2%.
Take `C=CCSc1nc2ccccc2c(=O)n1Cc1ccccc1` [2-Allylsulfanyl-3-benzyl-3H-quinazolin-4-one]: the “% net-like structures” value was 0%.
Turning to `CSc1nc2ccccc2c(=O)n1-c1cccc(C)c1` [2-Methylsulfanyl-3-m-tolyl-3H-quinazolin-4-one], the “% net-like structures” value was 0%.
The same measure, in the same setting: the result for `Cc1ccccc1-n1c(S)nc2ccccc2c1=O` [2-Mercapto-3-o-tolyl-3H-quinazolin-4-one] reads 30%.
